Laboratory results: PubChem BioAssay AID179 (DTP/NCI, 2004)
Active and inactive are the calls of the source.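 How the source made its calls: active means compounds giving half or more protection of infected cells from virus-caused growth loss, again on retest; inactive means the rest.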 Where a SMILES comes first, the peptide text is derived from it. The star is where a group is joined. Boc = CC(C)(C)OC(=O)*

Tested on: CEM cells HIV-1 protection, formazan growth assay
Assay: NCI AIDS Antiviral Assay
Settings: for IC50: measured here: growth of uninfected CEM cells
Outline: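 Steps: treat uninfected and HIV-1-infected human CEM cells at five drug levels; quantify growth by soluble formazan; retest any compound reaching 50% protection; classify actives from the retest.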

SMILES	EC50 [µM]	IC50 [µM]	outcome
O=C1c2cccc3cc([N+](=O)[O-])cc(c23)C(=O)N1CCN1CCCC1	> 200	0.0832	–
COc1ccc(-c2[nH]c3ccccc3c2CCNS(=O)(=O)c2ccc(C)cc2)cc1	–	–	inactive
Oc1[nH]c2ccccc2c1N=Nc1nc(-c2ccc(Br)cc2)cs1	> 200	120	–
[Ni+2].[O-]/C(=N\N=C/c1ccccc1F)c1ccncc1.[O-]/C(=N\N=C\c1ccccc1F)c1ccncc1	> 100	> 100	–
COc1cc(-c2ccccc2)cn2c1nc1ccccc12	> 200	11.5	–
Cc1ccsc1/C=N/Nc1nncc2ccccc12	> 200	25.1	–
N=C(N)SCN1C(=O)c2ccccc2C1=O	> 200	> 200	–
CC1OC(OCC2COC(O)(Oc3c(-c4ccc(O)c(O)c4)oc4cc(O)cc(O)c4c3=O)C(O)C2O)C(O)C(O)C1O (stereo not given)	–	–	inactive
O=C(Cc1ccccc1)NN1C(=O)/C(=C\c2ccccc2O)SC1=Nc1ccccc1	> 219	174	–
O=C(Nc1cccc(NC(=O)c2nn[nH]n2)n1)c1nn[nH]n1	> 200	> 200	–
O=c1[nH]c(=O)n(C2CC(F)C(CO)O2)cc1COCC(F)(F)F (stereo not given)	0.17	204	–
C=C1[C@H]2CCC3(CC[C@H]4C5(CCC[C@@]4(C)C(=O)N(CCO)C5)[C@@H]3C2)[C@@H]1O	–	–	inactive
NC1(C(=O)N2CCCC2C(=O)O)CCCC1 (stereo not given) (HELM PEPTIDE1{[NC1(C(=O)[*:2])CCCC1].[O=C(O)C1CCCN1[*:1]]}$$$$V2.0)	> 200	> 200	–
O=CNc1ccc(S(=O)(=O)c2ccc([N+](=O)[O-])cc2)cc1	> 200	30.2	–
CC(C)C(NC(=O)OC(C)(C)C)C(=O)N1CCCC1C(=O)O (stereo not drawn) (Boc-Val-Pro-OH; configuration not given here)	> 200	> 200	–
Cc1ccc(NC(=O)C(=O)CC(=O)c2sc(Nc3c(C)cccc3C)nc2C)cc1C	> 200	> 200	–
O=C1NC(O)c2cc(CO)ccc2O1 (stereo not given)	> 200	95.5	–
CCCCC(C#N)C(=O)NC(N)=O (stereo not given)	> 39.8	> 39.8	–
O=Nn1cc(-c2cc3ccccc3n2N=O)c2ccccc21	> 200	97.7	–
Cn1c2ccccc2n2c3ncccc3c(=NCCCC(=O)O)c(C#N)c12	> 200	> 200	–
CS(=O)(=O)Nc1ccc2c(c1)N(S(C)(=O)=O)CC2CCl (stereo not given)	> 200	166	–

SMILES	EC50 [µM]	IC50 [µM]	outcome
CC1=CC(=O)NCCN1C	138	1780	–
CCN(CC)CC[NH-].O=C([O-])C(=O)[O-].O=C([O-])C(=O)[O-].[Co+3].[K+]	> 200	148	–
CCSC(SCC)=C1C(=O)N(c2ccccc2)N=C1C	> 44.7	> 44.7	–
COC(=O)C(C(=O)C(=O)Nc1c(C)cccc1C)c1cnc2ccccc2n1 (stereo not given)	> 50.1	> 50.1	–
CCOC(=O)[C@H](Cc1ccccc1)NC(=O)c1nc[nH]c1[N+](=O)[O-]	> 537	372	–
O=C1NC2CSC(CCCCC(=O)ON3C(=O)CCC3=O)C2N1 (stereo not given)	> 741	123	–
C/C(=C1/CCC/C(=C(/C)c2ccccc2)C1=O)c1ccccc1	> 9.12	> 9.12	–
CC1OCC2OC(C)OC(C3C4=C(CC(C)(C)CC4=O)OC4=C3C(=O)CC(C)(C)C4)C2O1 (stereo not given)	> 562	550	–
CC(CC(N)C(=O)O)C(=O)O (stereo not given)	> 200	> 200	–
COC(=O)C(CCCCNC(=O)CNC(=O)OCc1ccccc1)NC(=O)C(CCCCNC(=O)CNC(=O)OCc1ccccc1)NC(=O)OCc1ccccc1 (stereo not given)	> 100	66.1	–
Cc1ccsc1C(=O)C(CC(=O)c1cccs1)c1ccsc1 (stereo not given)	–	–	inactive
COc1ccccc1C1CC(=O)CC(c2ccccc2OC)C12C(=O)NC(=S)NC2=O (stereo not given)	> 200	46.8	–
O=[N+]([O-])c1ccc(Sc2c3ccccc3nc3cc(Cl)ccc23)cc1	> 3.98	> 3.98	–
CCCCOP(=S)(OCCCC)OCCCC	–	–	inactive
C1CCC(N([P-]P([P-]N(C2CCCCC2)C2CCCCC2)N(C2CCCCC2)C2CCCCC2)C2CCCCC2)CC1.[C-]#[O+].[C-]#[O+].[C-]#[O+].[C-]#[O+].[C-]#[O+].[C-]#[O+].[Fe].[Fe] (stereo not given)	> 0.603	> 0.603	–
CC(C)C(NC(=O)c1ccccc1SC(=O)CCCC[n+]1ccccc1)C(N)=O (stereo not given)	1.05	8.71	–
Cc1coc2c1C(=O)C(=O)c1c-2ccc2c1CCCC2(C)C	> 200	25.7	–
CC(C)CC(NC(=O)OCc1ccccc1)C(=O)NCCCCC(N)C(=O)NC(CCCCNC(=O)C(CC(C)C)NC(=O)OCc1ccccc1)C(=O)NC(CCCCNC(=O)C(CC(C)C)NC(=O)OCc1ccccc1)C(=O)NC(CCCCNC(=O)C(CC(C)C)NC(=O)OCc1ccccc1)C(=O)NC(CCCCNC(=O)C(CC(C)C)NC(=O)OCc1ccccc1)C(=O)NC(CCCCNC(=O)C(CC(C)C)NC(=O)OCc1ccccc1)C(=O)O (stereo not given)	> 100	> 100	–
O=c1c(SCc2ccc(Cl)cc2)c(N2CCCCC2)cnn1-c1ccccc1	> 24	> 24	–
CCOC(=O)/C(C#N)=C/c1cccc(F)c1	> 162	> 162	–
NS(=O)(=O)c1ccc2c(c1)OCCOCCOCCOCCO2	> 200	> 200	–

SMILES	EC50 [µM]	IC50 [µM]	outcome
O[C@H]1[C@H]2c3cc4c(cc3CN3CCC(=C[C@@H]1O)[C@H]23)OCO4	> 2	0.372	–
O=C1OC(=O)c2c1c(-c1ccccc1)nc1ccccc21	> 107	> 107	–
CC1=NOC(C)(O)/C1=N/O (stereo not given)	> 200	158	–
O=C(Sc1c(-c2ccccc2)c(=O)n(-c2ccccc2)c(=S)n1-c1ccccc1)c1ccco1	> 200	34.7	–
CC1(C)OC2OC(C(O)CO)C(OC(=S)SSC(=S)OC3C(C(O)CO)OC4OC(C)(C)OC43)C2O1 (stereo not given)	> 200	36.3	–
Brc1ccc(-c2nc3sc(-c4ccc5c(c4)OCO5)nn3c2Br)cc1	> 200	> 200	–
CC12C(=O)NC(c3ccncc3)(c3ccccc31)C1C(=O)N(c3ccccc3)C(=O)C12 (stereo not given)	> 200	191	–
CC(=O)OC1C(COC(=O)c2ccccc2)OC(Nc2ncc(-c3ccc(Br)cc3)s2)C(OC(=O)c2ccccc2)C1OC(=O)c1ccccc1 (stereo not given)	> 200	20.4	–
COc1ccc2c(C)c(CNc3ccccc3)c(=O)oc2c1OC	> 11	> 11	–
O=C1CNC(=O)c2ncn(C3OC(CO)C(O)C3O)c2N1 (stereo not given)	> 240	> 240	–
c1csc(-c2cc(-c3cccs3)c(-c3ccsc3)s2)c1	> 200	33.1	–
COC(=O)N/N=C/c1oc(-c2cccc([N+](=O)[O-])c2)c(-c2cccc([N+](=O)[O-])c2)c1[N+](=O)[O-]	> 79.4	> 79.4	–
O=C(/C=C\c1ccccc1)c1ccc(-c2cccc(-c3ccccc3)c2)cc1	> 200	110	–
COC(=O)[C@H](Cc1c[nH]c2ccccc12)NP(=O)(O)CCC1OC(n2cc(C)c(=O)[nH]c2=O)CC1N=[N+]=[N-] (stereo not given in full)	> 200	> 200	–
CC1OC(CC(=O)O)Cc2c1c(O)c1c(O)cc(-c3cc(=O)c4c(=O)c5c(c(=O)c=4c3=O)CC(CC(=O)O)OC5C)c(O)c1c2O (stereo not given)	–	–	inactive
FC1=C2CCCCCC2SC1(F)F (stereo not given)	> 200	32.4	–
CCCc1c2c([nH]c(=O)c1C)C(=O)c1[nH]c(=O)c(C)c(CCC)c1C2=O	–	–	inactive
CC(C)c1ccc(C(c2ccc(OCC(=O)O)cc2)c2ccc(C(C)C)cc(=O)c2O)c(O)c(=O)c1	–	–	inactive
COc1ccc(CCCNC(=O)Cc2ccccc2CO)cc1OC	> 200	> 200	–
COc1cc(-c2ccc(N=Nc3cc(S(=O)(=O)O)c4cccc(S(=O)(=O)O)c4c3N)c(OC)c2)ccc1N=Nc1cc(S(=O)(=O)O)c2cccc(S(=O)(=O)O)c2c1N	14.1	89.1	–
Cc1ccc(C)c(C[P+](c2ccccc2)(c2ccccc2)c2ccccc2)c1	> 200	0.977	–

SMILES	EC50 [µM]	IC50 [µM]	outcome
COc1ccc2c(c1)CCN1C2CCN2C(=O)CCC21 (stereo not given)	> 912	> 912	–
COC(=O)Oc1nn(C(=O)OC)c(=O)c2ccccc12	> 200	> 200	–
C/C=C/C=Nc1c(C#N)c2n(c1C(=O)Nc1ccc(S(N)(=O)=O)cc1)CCC2	> 200	11	–
O=CCC(O)C(O)C(O)CO (stereo not given)	> 759	> 759	–
COc1ccc(C2=Nc3c(nc(SC)[nH]c3=O)NC(c3ccccc3)C2)cc1 (stereo not given)	–	–	inactive
Cc1ccc(C)c(COCCOCn2cc(N3CCOCC3)c(=O)[nH]c2=O)c1	> 200	> 200	–
CN(C)CCNC(=O)c1noc2c1CSc1ccccc1-2	> 407	28.2	–
O=c1c(SCc2ccccc2Cl)c(SCc2ccccc2Cl)cnn1-c1ccccc1	> 7.76	5.5	–
N#C/C(=C\NC(=S)c1ccncc1)c1nc2ccccc2s1	> 200	145	–
CCCC1N=C(c2ccccc2)C2C(c3ccc([N+](=O)[O-])cc3)N12 (stereo not given)	> 200	148	–
O=S(=O)(O)CCO	> 200	> 200	–
CC1=CP(=O)(c2ccccc2)CC1 (stereo not given)	0.0631	> 200	–
CCCCCC1=CC(=O)C1(Cl)Cl	> 200	27.5	–
COc1ccc2oc(C(=O)O)c3c2c1CCC3CCC(=O)O (stereo not given)	–	–	inactive
CCN(CCO)CCNc1ccc(C)c2sc3ccccc3c(=O)c12	> 200	2.88	–
C[C@]12CC[C@@H]3c4cc(Br)c(O)c(Br)c4CC[C@H]3[C@@H]1CCC2=O	> 200	33.1	–
CCN(CC)CCOC(=O)Cc1cccc2c(=O)cc(-c3ccccc3)oc12	–	–	inactive
O=C1C2CCCCC2C(=O)N1n1c(Cc2ccc(Cl)cc2)n[nH]c1=O (stereo not given)	> 200	> 200	–
COC(=O)/C(=C/c1c[nH]c2ccccc12)NC=O	> 200	> 200	–
CC12Nc3c(Cl)cc(Cl)cc3N1C(=O)c1ccccc12 (stereo not given)	> 200	87.1	–
